In patent publication US20180256595A1, “AGENT FOR ENHANCING OCULAR HYPOTENSIVE EFFECT” (KOWA COMPANY, LTD., priority 2015, published 2018):

Test: Multi-center open-label study: continuous ocular instillation of 0.4% ripasudil ophthalmic solution twice daily for 52 weeks, change in intra-ocular pressure
Format: in vivo, patients
Method: A multi-center open-label study was performed using a cohort for a monotherapy of ripasudil ophthalmic solution (173 cases) and a cohort for an additive therapy of a ripasudil ophthalmic solution in combination with another agent (181 cases) (additive therapy to a PG related drug: 62 cases, additive therapy to a β blocker: 60 cases, additive therapy to a combination drug of said PG-related drug and said β blocker: 59 cases). Patients with primary open angle glaucoma, ocular hypertension, and exfoliation glaucoma (one type of secondary glaucoma to cause aqueous humor outflow resistance due to exfoliation substances in aqueous humor or the like) having a pre-treatment intra-ocular pressure of 15 mmHg or higher or a post-treatment intra-ocular pressure of 15 mmHg or higher at the time after treatment of a PG-related drug, a β-blocker, or a combination drug of the PG-related drug and β-blocker were enrolled. A 0.4% ripasudil ophthalmic solution was dropped into an eye twice daily for 52 weeks. In order to evaluate intra-ocular pressure-lowering effect over time caused by long-term ocular instillation, the amount of change in intra-ocular pressure (least mean square value) in a second half of ocular instillation (32 weeks to 52 weeks) with respect to a first half of ocular instillation (4 weeks to 28 weeks) was examined. Statistical analysis was performed using SAS (SAS Inc., Cary, N.C.) by a least squares method based on a mixed effect model.

[1] = 2 hours after ocular instillation, baseline intra-ocular pressure 15≤ to <18 mmHg
[2] = 2 hours after ocular instillation, baseline intra-ocular pressure 18≤ to <−21 mmHg
[3] = 2 hours after ocular instillation, baseline intra-ocular pressure 21≤ mmHg
[4] = 2 hours after ocular instillation, whole cohort, least mean square value ± SE
[5] = before ocular instillation (immediately before ocular instillation in the morning), whole cohort, least mean square value ± SE
[6] = before ocular instillation, baseline intra-ocular pressure 15≤ to <18 mmHg
[7] = before ocular instillation, baseline intra-ocular pressure 18≤ to <−21 mmHg
[8] = before ocular instillation, baseline intra-ocular pressure 21≤ mmHg

In the case of `C[C@H]1CNCCCN1S(=O)(=O)c1cccc2cncc(F)c12` [Ripasudil only, (S)-(−)-1-(4-fluoro-5-isoquinolinesulfonyl)-2-methyl-1,4-homopiperazine], the “Change from the baseline intra-ocular pressure First half (Week 4-28)” value (shortened to “Change … (Week 4-28)”) [1] was −2.86 ± 0.24 mmHg, the “Change from the baseline intra-ocular pressure Second half (Week 32-52)” value (from here on “Change … (Week 32-52)”) [1] was −3.35 ± 0.25 mmHg and the “Difference (second half with respect to first half)” value (“Difference” for short) [1] was −0.49 ± 0.12 mmHg. For the same compound, the “Change … (Week 4-28)” value [2] was −3.24 ± 0.22 mmHg, the “Change … (Week 32-52)” value [2] was −3.71 ± 0.22 mmHg and the “Difference” value [2] was −0.47 ± 0.11 mmHg. The “Change … (Week 4-28)” value [3] was −3.55 ± 0.40 mmHg, the “Change … (Week 32-52)” value [3] was −4.39 ± 0.41 mmHg and the “Difference” value [3] was −0.84 ± 0.17 mmHg. The “Difference” value (2 hours after ocular instillation, whole cohort) was −0.58 ± 0.08 mmHg, the “Change … (Week 4-28)” value [4] was −3.23 ± 0.17 mmHg and the “Change … (Week 32-52)” value [4] was −3.81 ± 0.17 mmHg. For the same compound, the “Change … (Week 32-52)” value (2 hours after ocular instillation, whole cohort, least mean square value ± SE, listed as ripasudil) was −3.81 mmHg, the “Difference” value (2 hours after ocular instillation, whole cohort, listed as ripasudil) was −0.58 mmHg and the “Difference” value (before ocular instillation (immediately before ocular instillation in the morning), whole cohort) was −0.49 ± 0.07 mmHg. The “Change … (Week 4-28)” value [5] was −2.12 ± 0.15 mmHg, the “Change … (Week 32-52)” value [5] was −2.61 ± 0.15 mmHg and the “Change … (Week 32-52)” value (before ocular instillation (immediately before ocular instillation in the morning), whole cohort, least mean square value ± SE, listed as ripasudil) was −2.61 mmHg. The “Difference” value (before ocular instillation (immediately before ocular instillation in the morning), whole cohort, listed as ripasudil) was −0.49 mmHg, the “Change … (Week 4-28)” value [6] was −1.30 ± 0.25 mmHg and the “Change … (Week 32-52)” value [6] was −1.70 ± 0.26 mmHg. The “Difference” value [6] was −0.40 ± 0.12 mmHg, the “Change … (Week 4-28)” value [7] was −2.38 ± 0.16 mmHg and the “Change … (Week 32-52)” value [7] was −2.66 ± 0.17 mmHg. For the same compound, the “Difference” value [7] was −0.28 ± 0.11 mmHg, the “Change … (Week 4-28)” value [8] was −2.52 ± 0.34 mmHg and the “Change … (Week 32-52)” value [8] was −3.42 ± 0.35 mmHg. The “Difference” value [8] was −0.91 ± 0.16 mmHg, the “Difference” value (before ocular instillation, baseline intra-ocular pressure 21≤ mmHg, listed as ripasudil) was −0.91 mmHg and the “intra-ocular pressure-lowering effect on long-term continuous administration (in words)” value (long-term continuous ocular instillation) was “exhibited a further intra-ocular pressure-lowering effect by continuous ocular instillation”.
